Values joined by “and” are separate entries in the source; they are usually repeats but may differ in a detail not shown here. Equal entries are not always repeated.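 Exposure lasted 48 hours, with cells grown in 96-well plates and compounds tested at five concentrations. Abbreviation: GI50, concentration required for 50% inhibition of growth. At the TGI there is no net growth.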
Columns and labels:
Assay in all cases: inhibition of tumour cell growth, NCI panel, 48 h
HCT-116 colon = test system: HCT-116 colon
OVCAR-3 ovarian = test system: OVCAR-3 ovarian
SF-539 CNS = test system: SF-539 CNS
KM12 colon = test system: KM12 colon
UACC-257 melanoma = test system: UACC-257 melanoma
OVCAR-4 ovarian = test system: OVCAR-4 ovarian
NCI-H522 lung = test system: NCI-H522 lung
HOP-92 NSCLC = test system: HOP-92 NSCLC
U251 CNS = test system: U251 CNS
SK-MEL-5 melanoma = test system: SK-MEL-5 melanoma

SMILES	TGI (HCT-116 colon)	TGI (OVCAR-3 ovarian)	TGI (SF-539 CNS)	TGI (KM12 colon)	TGI (UACC-257 melanoma)	TGI (OVCAR-4 ovarian)	TGI (NCI-H522 lung)	TGI (HOP-92 NSCLC)	TGI (U251 CNS)	TGI (SK-MEL-5 melanoma)	GI50 (HCT-116 colon)	GI50 (OVCAR-3 ovarian)	GI50 (SF-539 CNS)	GI50 (KM12 colon)	GI50 (UACC-257 melanoma)	GI50 (OVCAR-4 ovarian)	GI50 (NCI-H522 lung)	GI50 (HOP-92 NSCLC)	GI50 (U251 CNS)	GI50 (SK-MEL-5 melanoma)
CCOC(=O)C(C)(C)C(O)C(C)C (centres undefined)	> 100 µM	> 100 µM	> 100 µM	> 100 µM	> 100 µM	> 100 µM	> 100 µM	> 100 µM	> 100 µM	> 100 µM										
CCc1ccc2c(c1)N(CCO)C1=C(C(=O)OC1)C2c1cccc(Cl)c1 (centres undefined)	13.1 µM	1.68 µM	11.4 µM	12.6 µM	23.6 µM	28.8 µM	2.76 µM	27.8 µM	15.5 µM	7.56 µM	0.498 µM	0.364 µM	0.488 µM	0.433 µM	0.772 µM	0.834 µM	0.242 µM	12.7 µM	0.499 µM	0.357 µM
COC(=O)/C=C/c1cn(C(C)=O)c2ccc(Br)cc12	> 100 µM	> 100 µM	> 100 µM	79.5 µM	> 100 µM	> 100 µM	97.5 µM	> 60.7 µM	> 100 µM	> 100 µM	32.6 µM	23.9 µM	29.9 µM	25.3 µM	35.6 µM	31.4 µM	21 µM	14.7 µM	28.2 µM	33.5 µM
CCC[CH2][Sn]1([CH2]CCC)[O]C(=O)c2ccc(C)cc2[O]1	2.18 µM	2.43 µM	1.73 µM	2.36 µM	1.49 µM	2.43 µM	0.239 µM	1.24 µM	1.16 µM	2.7 µM	0.985 µM	1.18 µM	0.518 µM	1.06 µM	0.316 µM	1.11 µM	0.113 µM	0.326 µM	0.316 µM	1.38 µM
COc1cc(-c2nn(-c3cccc(NC(=O)c4ccc(N5CCOCC5)c(C(F)(F)F)c4)c3)cc2-c2ccncc2)ccc1Cl	> 32.9 µM	1.19 µM	0.552 µM	8.78 µM	6.86 µM	> 100 µM	0.915 µM	0.952 µM	4.32 µM	0.966 µM	0.299 µM	0.147 µM	0.181 µM	0.213 µM	0.496 µM	1.51 µM	0.0606 µM	0.128 µM	0.36 µM	0.126 µM
CCCCCCc1nc2nc(Cl)c(Cl)nc2[nH]1	> 100 µM	> 100 µM	> 100 µM	> 100 µM	> 100 µM	> 100 µM	26.8 µM	7.4 µM	> 100 µM	> 100 µM	6.83 µM	4.01 µM	> 100 µM	6.88 µM	3.02 µM	6.33 µM	2.73 µM	1.99 µM	6.44 µM	2.61 µM
N#C/C(=C/Sc1ccccc1)C(=O)O	55.8 µM	78.5 µM	35.2 µM	99.3 µM	> 100 µM	> 100 µM	23.4 µM	> 100 µM	45.9 µM	> 100 µM										
S=c1nc(Cl)cc2[nH]c(Cl)cn12	16.6 µM	6.49 µM	5.69 µM	33.9 µM	> 100 µM	44.9 µM	6.22 µM	96.9 µM	> 100 µM	17.5 µM										
C/C(=C\COc1c2c(cc3c1CCO3)OC1(C=C2)OC(CC/C(C)=C/COc2c3ccoc3cc3oc(=O)ccc23)C(C)(C)O1)CCC(O)C(C)(C)O (centres undefined)	> 100 µM	> 100 µM	> 100 µM	> 100 µM	> 100 µM	> 100 µM	> 100 µM	> 100 µM	> 100 µM	> 100 µM	18.4 µM	15 µM	63.5 µM	11.7 µM	25.3 µM	6.23 µM	24.3 µM	7.56 µM	44.4 µM	8.85 µM
COc1cc(O)c2c(c1)C(=O)c1cc3c(c(O)c1C2=O)C(OC1OC(C)C(O)C(O)C1OC)C(OC)C(C)(O)C3=O (centres undefined)	6.56 µM and 5.88 µM	5.83 µM and 2.04 µM	4.52 µM and 5.99 µM	17.9 µM and 7.92 µM	5.25 µM and 2.5 µM	8.04 µM and 2.64 µM	6.7 µM and 9.45 µM	8.49 µM and 1.81 µM	13.2 µM and 11.8 µM	2.57 µM and 2.26 µM	1.63 µM and 0.665 µM	1.38 µM		3.11 µM and 2.33 µM	1.98 µM	1.7 µM	2.18 µM	2 µM	2.56 µM	1.27 µM
O=c1c2ccccc2c2ccccc2c(=O)n1Cc1ccc2c(c1)OCO2	> 100 µM	> 100 µM	> 94.5 µM	> 100 µM	> 100 µM	> 100 µM	> 100 µM	> 100 µM	> 100 µM	> 100 µM										
COC(=O)[C@H](Cc1ccc(O)cc1)NC(=O)[C@@H](OC)[C@@H]1Cc2cc3cc(OC4CC(OC5CC(O)C(O)C(C)O5)C(O)C(C)O4)c(C)c(O)c3c(O)c2C(=O)[C@H]1OC1CC(OC2CC(OC3CC(C)(O)C(O)C(C)O3)C(O)C(C)O2)C(O)C(C)O1 (some centres undefined)	> 25 µM	> 25 µM	1.97 µM	> 25 µM	4.39 µM	> 25 µM	> 25 µM	7.15 µM	> 25 µM	0.448 µM	0.0175 µM	0.155 µM	0.0639 µM	0.106 µM	0.124 µM	0.178 µM	0.0584 µM	0.0387 µM	0.113 µM	0.0428 µM
O=C(NCc1ccncc1)C12CC3CC(C1)CC(c1ccc(Cl)cc1)(C3)C2	22.3 µM	27.3 µM	28.1 µM	27.8 µM	25.1 µM	32.8 µM	28.8 µM	25.2 µM	28.6 µM	18.3 µM	9.4 µM	13.2 µM	14.1 µM	13.6 µM	12.4 µM	10.9 µM	13.5 µM	12 µM	14.2 µM	5.7 µM

— PubChem BioAssay (NCI)
